What all share (assay type): functional
The test system of one assay is SNB-19. The experiment in a line: Cytotoxicity against human SNB19 cells assessed as cellular growth at 10 uM by SRB assay. On the technique in general: The SRB assay estimates cell density from bound dye.
A further assay has as its system NCI-H23. As to the kind of experiment: Cytotoxicity against human NCI-H23 cells assessed as cellular growth at 10 uM by SRB assay.
The subject of a further assay is 786-0. As to the kind of experiment: Cytotoxicity against human 786-0 cells assessed as cellular growth at 10 uM by SRB assay.
The test system of the next assay is MDA-MB-231. The experiment in a line: Cytotoxicity against human MDA-MB-231 cells assessed as cellular growth at 10 uM by SRB assay.
Another assay concerns NCI-H460. The experiment in a line: Cytotoxicity against human NCI-H460 cells assessed as cellular growth at 10 uM by SRB assay.
The next assay concerns HOP-62. As to the kind of experiment: Cytotoxicity against human HOP62 cells assessed as cellular growth at 10 uM by SRB assay.
The next assay concerns DU-145. As to the kind of experiment: Cytotoxicity against human DU145 cells assessed as cellular growth at 10 uM by SRB assay.
A further assay relates to MCF7. The experiment in a line: Cytotoxicity against human MCF7 cells assessed as cellular growth at 10 uM by SRB assay.
Another assay concerns SN12C. As to the kind of experiment: Cytotoxicity against human SN12C cells assessed as cellular growth at 10 uM by SRB assay.
In the next assay the test system is SF-295. The experiment in a line: Cytotoxicity against human SF295 cells assessed as cellular growth at 10 uM by SRB assay.
A further assay relates to U-251. As to the kind of experiment: Cytotoxicity against human U251 cells assessed as cellular growth at 10 uM by SRB assay.
For a further assay, the system named is Hs-578T. The experiment in a line: Cytotoxicity against human Hs578T cells assessed as cellular growth at 10 uM by SRB assay.
The next assay concerns SK-MEL-2. As to the kind of experiment: Cytotoxicity against human SK-MEL-2 cells assessed as cellular growth at 10 uM by SRB assay.
Another assay concerns SF-539. The experiment in a line: Cytotoxicity against human SF539 cells assessed as cellular growth at 10 uM by SRB assay.
In a further assay the test system is SF-268. As to the kind of experiment: Cytotoxicity against human SF268 cells assessed as cellular growth at 10 uM by SRB assay.
The test system of a further assay is CAKI-1. The experiment in a line: Cytotoxicity against human Caki1 cells assessed as cellular growth at 10 uM by SRB assay.
The test system of a further assay is UACC-257. The experiment in a line: Cytotoxicity against human UACC257 cells assessed as cellular growth at 10 uM by SRB assay.
Another assay has as its system RPMI-8226. The experiment in a line: Cytotoxicity against human RPMI8226 cells assessed as cellular growth at 10 uM by SRB assay.
The test system of another assay is NCI-H522. The experiment in a line: Cytotoxicity against human NCI-H522 cells assessed as cellular growth at 10 uM by SRB assay.
The next assay relates to KM12. The experiment in a line: Cytotoxicity against human KM12 cells assessed as cellular growth at 10 uM by SRB assay.

Consider `Cc1cc(C)c(NC(=O)c2sc3nc4c(cc3c2N)C(=O)CC(C)(C)C4)c(C)c1`, for which the Activity is listed as 122.53% in the assay on SNB-19; 94.31% in the assay on NCI-H23; 103.33% in the assay with 786-0; 115.09% in the assay on MDA-MB-231; 102.63% in the assay on NCI-H460; 111.49% with HOP-62. Moreover, the Activity in the assay on DU-145 was 127.81%; with MCF7, 99.03%; in the assay with SN12C it was 103.6%; with SF-295, 81.11%; in the assay on U-251, 99.68%; in the assay with Hs-578T, 108.69%. Further, the Activity in the assay with SK-MEL-2 amounted to 119.22%; with SF-539, 102.77%; with SF-268, 115.09%; in the assay with CAKI-1, 82.45%; with UACC-257, 101.32%; with RPMI-8226 it was 90.56%. Besides, the Activity with NCI-H522 came out at 100.45%; with KM12 it was 112.78%.

Regarding `Cc1c(OCC(=O)c2ccccc2)ccc2c1oc(=O)c1ccccc12`, the Activity with SNB-19 worked out at 101.61%; in the assay with NCI-H23, 109.71%; in the assay with 786-0, 104.87%; with MDA-MB-231, 104.28%; with NCI-H460, 100.87%; in the assay with HOP-62 it was 105.3%. Besides, the Activity in the assay with DU-145 worked out at 106.9%; with MCF7 it was 102.82%; in the assay on SN12C, 101.41%; in the assay with SF-295, 99.54%; in the assay with U-251 it was 98.92%; in the assay with Hs-578T, 103.5%. For the same molecule, the Activity in the assay with SK-MEL-2 is recorded as 125.14%; with SF-539, 104.56%; in the assay with SF-268, 100.71%; in the assay with CAKI-1, 99.74%; in the assay with UACC-257, 111.79%; with RPMI-8226 it was 107.85%. In addition, the Activity in the assay with NCI-H522 was determined as 110.46%; in the assay on KM12, 97.66%.

On to `COc1ccc(NC(=O)c2sc3nc4c(cc3c2N)C(=O)CCC4)cc1`, for which the Activity in the assay with SNB-19 is 116.74%; in the assay on NCI-H23, 96.26%; with 786-0, 100.45%; with MDA-MB-231, 116.49%; with NCI-H460 it was 96.07%; with HOP-62 it was 112.48%. For the same molecule, the Activity in the assay with DU-145 amounted to 102.19%; in the assay on MCF7, 104.14%; in the assay with SN12C, 116.88%; in the assay on SF-295 it was 80.98%; in the assay on U-251, 106.61%; in the assay with Hs-578T, 135.57%. The Activity with SK-MEL-2 is recorded as 114.87%; with SF-539, 102.64%; in the assay on SF-268 it was 109.11%; in the assay with CAKI-1 it was 97.06%; in the assay on UACC-257, 117.22%; in the assay with RPMI-8226, 104.85%. Moreover, the Activity in the assay with NCI-H522 worked out at 100.22%; in the assay on KM12 it was 105.15%.

Regarding `N#Cc1ccc(NC(=O)c2sc3nc4c(cc3c2N)C(=O)CCC4)cc1`, the Activity worked out at 101.84% in the assay on SNB-19; 106.13% in the assay on NCI-H23; 97.81% with 786-0; 109.01% with MDA-MB-231; 85.91% with NCI-H460; 100.94% in the assay on HOP-62. Further, the Activity came out at 94.94% in the assay with DU-145; 97.4% in the assay with MCF7; 98.35% in the assay with SN12C; 82.4% with SF-295; 106.08% in the assay on U-251; 110.8% in the assay on Hs-578T. Further, the Activity with SK-MEL-2 was 83%; in the assay with SF-539, 99.77%; in the assay with SF-268, 102.29%; with CAKI-1, 93.27%; in the assay with UACC-257, 105.99%; with RPMI-8226 it was 95.69%. Also, the values for the Activity in the assay on NCI-H522 and in the assay with KM12 were 102.85% and 101.12%, respectively.

As for `CC1(C)CC(=O)c2cc3c(N)c(C(=O)Nc4ccc(F)cc4)sc3nc2C1`, the Activity with SNB-19 worked out at 131.09%; with NCI-H23 it was 102%; with 786-0, 104.75%; in the assay with MDA-MB-231, 112.36%; in the assay with NCI-H460 it was 104.48%; with HOP-62, 114.29%. In addition, the Activity in the assay on DU-145 was found to be 122.42%; in the assay with MCF7 it was 105.49%; with SN12C, 122.37%; with SF-295, 88.4%; in the assay on U-251 it was 101.59%; in the assay on Hs-578T, 111.09%. In addition, the Activity is listed as 122.76% in the assay with SK-MEL-2; 96.07% with SF-539; 124.1% in the assay with SF-268; 98.34% with CAKI-1; 107.39% in the assay on UACC-257; 103.3% in the assay on RPMI-8226. The Activity was 102.43% in the assay on NCI-H522 and 115.29% with KM12.

For the molecule `CC1(C)CC(=O)c2cc3c(N)c(C(=O)Nc4ccccc4Cl)sc3nc2C1`, the Activity in the assay with SNB-19 stood at 106.42%; with NCI-H23, 108.01%; in the assay on 786-0, 102.03%; in the assay on MDA-MB-231 it was 116.03%; in the assay with NCI-H460, 113.94%; in the assay with HOP-62, 116.65%. Besides, the Activity in the assay with DU-145 turned out to be 109.85%; in the assay on MCF7, 111.34%; with SN12C, 104.5%; in the assay on SF-295, 96.7%; with U-251 it was 102.37%; in the assay with Hs-578T it was 112.91%. Also, the Activity in the assay on SK-MEL-2 is reported as 111.24%; in the assay with SF-539, 111.8%; in the assay on SF-268 it was 122.6%; with CAKI-1 it was 132.4%; in the assay with UACC-257, 104.02%; in the assay with RPMI-8226, 108.32%. Besides, the Activity with NCI-H522 was determined as 102.8%; in the assay on KM12, 117.4%.

Regarding `Cc1ccc(NC(=O)c2sc3nc(-c4cccs4)ccc3c2N)cc1C`, the Activity in the assay with SNB-19 is listed as 111.2%; in the assay with NCI-H23, 111.92%; with 786-0, 105.46%; in the assay on MDA-MB-231 it was 116.18%; in the assay on NCI-H460 it was 98.65%; in the assay on HOP-62 it was 103.01%. The Activity stood at 103.5% in the assay with DU-145; 109.1% in the assay on MCF7; 100.59% in the assay on SN12C; 110.27% in the assay on SF-295; 101.86% with U-251; 110.72% with Hs-578T. The Activity in the assay with SK-MEL-2 amounted to 82.1%; in the assay on SF-539, 118.53%; in the assay with SF-268, 107.88%; with CAKI-1 it was 131.91%; in the assay with UACC-257 it was 106.65%; in the assay with RPMI-8226, 103.98%. Further, the results for the Activity in the assay with NCI-H522 and in the assay on KM12 were 100.77% and 106.51%, respectively.

These data come from ChEMBL document CHEMBL2202954, “The effect of PLC-γ2 inhibitors on the growth of human tumour cells” (2012).
